Results taken from patent US12414961B2, “Substituted nucleosides and nucleotides for treating viral infections” (priority 2013, dated 2025).

Experiments:
CEM = assay: Cytotoxicity (CC50) CEM; conditions: read-out: Cytotoxicity (CC50 uM) CEM; CEM
Huh-7 = assay: Cytotoxicity (CC50) Huh-7; conditions: read-out: Cytotoxicity (CC50 uM) Huh-7; Huh-7
HepG2 = assay: Cytotoxicity (CC50) HepG2; conditions: read-out: Cytotoxicity (CC50 uM) HepG2; HepG2
BxPC3 = assay: Cytotoxicity (CC50) BxPC3; conditions: read-out: Cytotoxicity (CC50 uM) BxPC3; BxPC3
A204 = assay: Cytotoxicity (CC50) A204; type: cell-based; conditions: A204
Huh-7 cells = assay: Cytotoxicity in Huh-7 cells of the HCV replicon assay; conditions: read-out: Huh-7 cells (CC50 uM)
Cytotoxicity (CC50) CEM = conditions: human, CEM cells
[1] = Cytotoxicity (CC50) Huh-7; conditions: human, Huh-7 cells
[2] = Cytotoxicity (CC50) HepG2; conditions: human, HepG2 cells
[3] = Cytotoxicity (CC50) BxPC3; conditions: human, BxPC3 cells
[4] = Cytotoxicity in Vero cells (Dengue assay); conditions: African green monkey
[5] = Cytotoxicity in Huh-7 cells (Dengue assay); conditions: human, Huh-7 cells
Dengue Type 2 [6] = assay: Anti-Dengue virus cytoprotection assay, Huh-7 cells; conditions: Huh-7, read-out: Dengue Type 2 Huh-7 Cells (EC50 uM)
Dengue Type 2 [7] = assay: Anti-Dengue virus cytoprotection assay, Vero cells; conditions: read-out: Dengue Type 2 Vero Cells (EC50 uM)

SMILES: C[C@@]1(O)C(O)[C@@H](CO)O[C@H]1n1ccc(=S)[nH]c1=O (stereo partly shown)
- CC50 (CEM): > 400 µM
- CC50 (Huh-7): > 100 µM
- CC50 (HepG2): > 400 µM
- CC50 (BxPC3): > 100 µM

SMILES: C[C@@]1(F)C(O)[C@@H](CO)O[C@H]1n1ccc(=S)[nH]c1=O (stereo partly shown)
- CC50 (CEM): > 400 µM
- CC50 (Huh-7): > 400 µM
- CC50 (HepG2): > 400 µM

SMILES: C[C@@]1(O)C(O)[C@@H](CO)O[C@H]1n1ccc(=O)[nH]c1=S (stereo partly shown)
- CC50 (CEM): > 200 µM
- CC50 (Huh-7): > 100 µM
- CC50 (HepG2): > 400 µM
- CC50 (BxPC3): > 100 µM

SMILES: CC(C)OC(=O)[C@H](C)NP(=O)(OC[C@H]1O[C@@H](n2ccc(=O)[nH]c2=[Se])[C@](C)(O)C1O)Oc1ccccc1 (stereo partly shown)
- CC50 (A204): > 400 µM
- CC50 (Huh-7): > 100 µM
- CC50 (HepG2): > 400 µM
- CC50 (BxPC3): > 400 µM

SMILES: CC(C)OC(=O)[C@H](C)N[P@@](=O)(OC[C@H]1O[C@@H](n2ccc(=O)[nH]c2=S)[C@](C)(O)C1O)Oc1ccccc1 (stereo partly shown)
- CC50 (CEM): > 400 µM
- CC50 (Huh-7): > 400 µM
- CC50 (HepG2): > 400 µM

SMILES: CC(C)OC(=O)[C@H](C)N[P@@](=O)(OC[C@H]1O[C@@H](n2ccc(=O)[nH]c2=O)[C@](C)(F)C1O)Oc1ccccc1 (stereo partly shown)
- CC50 (CEM): > 400 µM
- CC50 (Huh-7): > 400 µM
- CC50 (HepG2): > 400 µM

SMILES: CC(C)OC(=O)[C@H](C)NP(=O)(OC[C@H]1O[C@@H](n2ccc(=S)[nH]c2=O)[C@@H](O)C1O)Oc1ccccc1 (stereo partly shown)
- CC50 (HepG2): > 400 µM

SMILES: C[C@H](NP(=O)(O)OC[C@H]1O[C@@H](n2ccc(=O)[nH]c2=S)[C@](C)(O)C1O)C(=O)O (stereo partly shown)
- CC50 (CEM): > 400 µM
- CC50 (Huh-7): > 400 µM
- CC50 (HepG2): > 400 µM
- CC50 (Huh-7 cells): > 100 µM

SMILES: C[C@@]1(O)C(O)[C@@H](COP(=O)(O)O)O[C@H]1n1ccc(=O)[nH]c1=S (stereo partly shown)
- CC50 (CEM): > 400 µM
- CC50 (Huh-7): > 400 µM
- CC50 (HepG2): > 400 µM
- CC50 (Huh-7 cells): > 100 µM

SMILES: CC(C)OC(=O)[C@H](C)NP(=O)(OC[C@@]1(N=[N+]=[N-])O[C@@H](n2ccc(=S)[nH]c2=O)[C@@H](O)C1O)Oc1ccccc1 (stereo partly shown)
- CC50 (CEM): 229 µM
- CC50 (Huh-7): > 400 µM
- CC50 (HepG2): > 400 µM
- CC50 (Huh-7 cells): > 100 µM

SMILES: CC1(O)[C@@H](O)[C@@H](CO)O[C@H]1n1ccc(=O)[nH]c1=S (stereo partly shown)
- CC50 (Cytotoxicity (CC50) CEM): > 200 µM
- CC50 [1]: > 100 µM
- CC50 [2]: > 400 µM
- CC50 [3]: > 100 µM
- CC50 [4]: > 100 µM
- CC50 [5]: > 100 µM
- EC50 (Dengue Type 2 [6]): > 100 µM

SMILES: CC(C)OC(=O)[C@H](C)N[P@@](=O)(OC[C@H]1O[C@@H](n2ccc(=O)[nH]c2=S)C(C)(O)[C@H]1O)Oc1ccccc1 (stereo partly shown)
- CC50 (Cytotoxicity (CC50) CEM): > 400 µM
- CC50 [1]: > 400 µM
- CC50 [2]: > 400 µM
- CC50 [4]: > 100 µM
- CC50 [5]: > 100 µM
- EC50 (Dengue Type 2 [7]): 56.2 µM
- EC50 (Dengue Type 2 [6]): 24.9 µM

SMILES: C#C[C@]1(COP(=O)(N[C@@H](C)C(=O)OC(C)C)Oc2ccccc2)O[C@@H](n2ccc(=O)[nH]c2=S)C(O)[C@H]1O (stereo partly shown)
- CC50 (Cytotoxicity (CC50) CEM): > 400 µM
- CC50 [1]: > 400 µM
- CC50 [2]: > 400 µM
- CC50 [5]: > 100 µM
- EC50 (Dengue Type 2 [6]): > 100 µM

SMILES: CC(C)OC(=O)[C@H](C)NP(=O)(OC[C@H]1O[C@@H](n2ccc(=O)[nH]c2=S)C(C)[C@H]1O)Oc1ccccc1 (stereo partly shown)
- CC50 (Cytotoxicity (CC50) CEM): 259 µM
- CC50 [1]: > 400 µM
- CC50 [2]: > 400 µM
- CC50 [5]: > 100 µM
- EC50 (Dengue Type 2 [6]): 6.07 µM
